Data taken from the NIST ThermoML archive (doi:10.1021/je300252d).
± gives the expanded uncertainty stated by the source.

Test: mn = molality of the nth substance listed, in mol/kg
Details: 100 kPa, Liquid, Direct current cell with electrodes

[Na+].c1ccc([B-](c2ccccc2)(c2ccccc2)c2ccccc2)cc1 [sodium tetraphenylboron] + CN(C)C=O
molar conductivity (283.15 K, m1 = 0.0001121): 0.004311 ± 7e-06 S·m2/mol
molar conductivity (283.15 K, m1 = 0.0003006): 0.004246 ± 5.7e-06 S·m2/mol
molar conductivity (283.15 K, m1 = 0.0005305): 0.004194 ± 4.2e-06 S·m2/mol
molar conductivity (283.15 K, m1 = 0.0007538): 0.0041545 ± 3.2e-06 S·m2/mol
molar conductivity (283.15 K, m1 = 0.001184): 0.0040963 ± 2.6e-06 S·m2/mol
molar conductivity (283.15 K, m1 = 0.001959): 0.0040172 ± 2.1e-06 S·m2/mol
molar conductivity (283.15 K, m1 = 0.002964): 0.0039424 ± 1.8e-06 S·m2/mol
molar conductivity (283.15 K, m1 = 0.004014): 0.0038787 ± 1.6e-06 S·m2/mol
molar conductivity (283.15 K, m1 = 0.005905): 0.0037902 ± 1.4e-06 S·m2/mol
molar conductivity (283.15 K, m1 = 0.007908): 0.0037146 ± 1.3e-06 S·m2/mol
molar conductivity (283.15 K, m1 = 0.009953): 0.0036529 ± 1.3e-06 S·m2/mol
molar conductivity (283.15 K, m1 = 0.01189): 0.003601 ± 1.2e-06 S·m2/mol
molar conductivity (288.15 K, m1 = 8.405e-05): 0.004653 ± 7.7e-06 S·m2/mol
molar conductivity (288.15 K, m1 = 0.0003375): 0.00456 ± 6.3e-06 S·m2/mol
molar conductivity (288.15 K, m1 = 0.0005532): 0.0045097 ± 4.3e-06 S·m2/mol
molar conductivity (288.15 K, m1 = 0.0008262): 0.0044598 ± 3.5e-06 S·m2/mol
molar conductivity (288.15 K, m1 = 0.001174): 0.0044103 ± 2.7e-06 S·m2/mol
molar conductivity (288.15 K, m1 = 0.001935): 0.0043259 ± 2.2e-06 S·m2/mol
molar conductivity (288.15 K, m1 = 0.003089): 0.004235 ± 1.9e-06 S·m2/mol
molar conductivity (288.15 K, m1 = 0.003947): 0.00418 ± 1.6e-06 S·m2/mol
molar conductivity (288.15 K, m1 = 0.005926): 0.0040813 ± 1.5e-06 S·m2/mol
molar conductivity (288.15 K, m1 = 0.007888): 0.004001 ± 1.4e-06 S·m2/mol
molar conductivity (288.15 K, m1 = 0.009893): 0.0039356 ± 1.3e-06 S·m2/mol
molar conductivity (288.15 K, m1 = 0.01186): 0.0038782 ± 1.3e-06 S·m2/mol
molar conductivity (293.15 K, m1 = 8.854e-05): 0.00499 ± 8.4e-06 S·m2/mol
molar conductivity (293.15 K, m1 = 0.0003068): 0.004902 ± 6.8e-06 S·m2/mol
molar conductivity (293.15 K, m1 = 0.0005164): 0.0048481 ± 4.8e-06 S·m2/mol
molar conductivity (293.15 K, m1 = 0.0007512): 0.0047996 ± 3.7e-06 S·m2/mol
molar conductivity (293.15 K, m1 = 0.001224): 0.004726 ± 2.9e-06 S·m2/mol
molar conductivity (293.15 K, m1 = 0.001989): 0.004637 ± 2.3e-06 S·m2/mol
molar conductivity (293.15 K, m1 = 0.003077): 0.0045457 ± 2e-06 S·m2/mol
molar conductivity (293.15 K, m1 = 0.004001): 0.004483 ± 1.7e-06 S·m2/mol
molar conductivity (293.15 K, m1 = 0.005908): 0.0043822 ± 1.6e-06 S·m2/mol
molar conductivity (293.15 K, m1 = 0.007927): 0.004295 ± 1.4e-06 S·m2/mol
molar conductivity (293.15 K, m1 = 0.009859): 0.004226 ± 1.4e-06 S·m2/mol
molar conductivity (293.15 K, m1 = 0.0119): 0.004162 ± 1.3e-06 S·m2/mol
molar conductivity (298.15 K, m1 = 0.000116): 0.005325 ± 8.8e-06 S·m2/mol
molar conductivity (298.15 K, m1 = 0.0003157): 0.005244 ± 6.7e-06 S·m2/mol
molar conductivity (298.15 K, m1 = 0.0005504): 0.0051809 ± 5.1e-06 S·m2/mol
molar conductivity (298.15 K, m1 = 0.0007618): 0.0051351 ± 3.9e-06 S·m2/mol
molar conductivity (298.15 K, m1 = 0.001217): 0.0050592 ± 3.1e-06 S·m2/mol
molar conductivity (298.15 K, m1 = 0.002007): 0.0049609 ± 2.5e-06 S·m2/mol
molar conductivity (298.15 K, m1 = 0.002964): 0.0048739 ± 2.1e-06 S·m2/mol
molar conductivity (298.15 K, m1 = 0.003939): 0.004802 ± 1.8e-06 S·m2/mol
molar conductivity (298.15 K, m1 = 0.005917): 0.0046899 ± 1.6e-06 S·m2/mol
molar conductivity (298.15 K, m1 = 0.00789): 0.004599 ± 1.5e-06 S·m2/mol
molar conductivity (298.15 K, m1 = 0.009808): 0.0045256 ± 1.4e-06 S·m2/mol
molar conductivity (298.15 K, m1 = 0.01189): 0.0044558 ± 1.4e-06 S·m2/mol
molar conductivity (303.15 K, m1 = 0.0001023): 0.005694 ± 9e-06 S·m2/mol
molar conductivity (303.15 K, m1 = 0.0003262): 0.005596 ± 7.3e-06 S·m2/mol
molar conductivity (303.15 K, m1 = 0.0005565): 0.00553 ± 5.4e-06 S·m2/mol
molar conductivity (303.15 K, m1 = 0.0007645): 0.0054821 ± 4.1e-06 S·m2/mol
molar conductivity (303.15 K, m1 = 0.001229): 0.0053997 ± 3.3e-06 S·m2/mol
molar conductivity (303.15 K, m1 = 0.002017): 0.0052952 ± 2.6e-06 S·m2/mol
molar conductivity (303.15 K, m1 = 0.003018): 0.0051984 ± 2.2e-06 S·m2/mol
molar conductivity (303.15 K, m1 = 0.004001): 0.0051217 ± 1.9e-06 S·m2/mol
molar conductivity (303.15 K, m1 = 0.005892): 0.0050075 ± 1.7e-06 S·m2/mol
molar conductivity (303.15 K, m1 = 0.007841): 0.0049118 ± 1.5e-06 S·m2/mol
molar conductivity (303.15 K, m1 = 0.009874): 0.0048292 ± 1.5e-06 S·m2/mol
molar conductivity (303.15 K, m1 = 0.01188): 0.0047579 ± 1.4e-06 S·m2/mol
molar conductivity (308.15 K, m1 = 0.000135): 0.006046 ± 1e-05 S·m2/mol
molar conductivity (308.15 K, m1 = 0.0003264): 0.005961 ± 7.7e-06 S·m2/mol
molar conductivity (308.15 K, m1 = 0.0005229): 0.0058999 ± 5.8e-06 S·m2/mol
molar conductivity (308.15 K, m1 = 0.0007539): 0.0058422 ± 4.4e-06 S·m2/mol
molar conductivity (308.15 K, m1 = 0.00122): 0.0057534 ± 3.5e-06 S·m2/mol
molar conductivity (308.15 K, m1 = 0.002002): 0.0056421 ± 2.8e-06 S·m2/mol
molar conductivity (308.15 K, m1 = 0.002969): 0.005541 ± 2.3e-06 S·m2/mol
molar conductivity (308.15 K, m1 = 0.00395): 0.0054581 ± 1.9e-06 S·m2/mol
molar conductivity (308.15 K, m1 = 0.005926): 0.00533 ± 1.8e-06 S·m2/mol
molar conductivity (308.15 K, m1 = 0.007923): 0.0052265 ± 1.6e-06 S·m2/mol
molar conductivity (308.15 K, m1 = 0.009885): 0.005143 ± 1.5e-06 S·m2/mol
molar conductivity (308.15 K, m1 = 0.01187): 0.0050687 ± 1.5e-06 S·m2/mol
molar conductivity (313.15 K, m1 = 8.854e-05): 0.00646 ± 1.2e-05 S·m2/mol
molar conductivity (313.15 K, m1 = 0.0002531): 0.006367 ± 9.5e-06 S·m2/mol
molar conductivity (313.15 K, m1 = 0.0004344): 0.006299 ± 6.5e-06 S·m2/mol
molar conductivity (313.15 K, m1 = 0.00071): 0.0062208 ± 4.8e-06 S·m2/mol
molar conductivity (313.15 K, m1 = 0.001219): 0.006116 ± 3.7e-06 S·m2/mol
molar conductivity (313.15 K, m1 = 0.002012): 0.0059959 ± 2.9e-06 S·m2/mol
molar conductivity (313.15 K, m1 = 0.003006): 0.0058852 ± 2.5e-06 S·m2/mol
molar conductivity (313.15 K, m1 = 0.00399): 0.0057965 ± 2e-06 S·m2/mol
molar conductivity (313.15 K, m1 = 0.005907): 0.0056636 ± 1.8e-06 S·m2/mol
molar conductivity (313.15 K, m1 = 0.007913): 0.0055535 ± 1.7e-06 S·m2/mol
molar conductivity (313.15 K, m1 = 0.00989): 0.0054653 ± 1.6e-06 S·m2/mol
molar conductivity (313.15 K, m1 = 0.01185): 0.0053887 ± 1.5e-06 S·m2/mol
molar conductivity (318.15 K, m1 = 0.0001115): 0.006838 ± 1.2e-05 S·m2/mol
molar conductivity (318.15 K, m1 = 0.0002618): 0.006751 ± 9.2e-06 S·m2/mol
molar conductivity (318.15 K, m1 = 0.000487): 0.006665 ± 6.8e-06 S·m2/mol
molar conductivity (318.15 K, m1 = 0.0007457): 0.0065904 ± 5e-06 S·m2/mol
molar conductivity (318.15 K, m1 = 0.001234): 0.0064856 ± 3.9e-06 S·m2/mol
molar conductivity (318.15 K, m1 = 0.002038): 0.0063572 ± 3.1e-06 S·m2/mol
molar conductivity (318.15 K, m1 = 0.003): 0.0062427 ± 2.6e-06 S·m2/mol
molar conductivity (318.15 K, m1 = 0.003985): 0.0061473 ± 2.2e-06 S·m2/mol
molar conductivity (318.15 K, m1 = 0.005931): 0.0060029 ± 1.9e-06 S·m2/mol
molar conductivity (318.15 K, m1 = 0.007878): 0.0058897 ± 1.7e-06 S·m2/mol
molar conductivity (318.15 K, m1 = 0.009914): 0.0057949 ± 1.6e-06 S·m2/mol
